Results reported in PubChem BioAssay AID248 (DTP/NCI, 2004).
“And” between values parts separate entries of the source, which are not always exact repeats. Identical values can stand only once. Toxic doses and inconclusive results are not listed.

Test system: L1210 leukemia ip in BDF1 mice, survival T/C
Assay: NCI In Vivo Anticancer Drug Screen. Data for tumor model L1210 Leukemia (intraperitoneal) in B6D2F1 (BDF1) mice
Conditions: endpoint: mean survival time, higher = longer survival
Outline: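 Read-out is survival time, reported as the treated-group measurement over the vehicle-control measurement.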

[1] = dose: 100.0 mg/kg/injection, schedule: Q01DX009 (ip), vehicle: saline
[2] = dose: 100.0 mg/kg/injection, schedule: Q04DX003 (ip), vehicle: saline with Tween-80
[3] = dose: 200.0 mg/kg/injection, schedule: Q04DX003 (ip), vehicle: saline with Tween-80

CN(C)/N=N/c1nc(Cc2ccccc2)[nH]c1C(N)=O
T/C (dose: 100.0 mg/kg/injection, schedule: Q01DX009 (ip), vehicle: Klucel (hydroxypropylcellulose) (HPC)): 108 % of control
T/C (dose: 177.0 mg/kg/injection, schedule: Q01DX009 (ip), vehicle: Klucel (hydroxypropylcellulose) (HPC)): 116 % of control
T/C (dose: 200.0 mg/kg/injection, schedule: Q01DX009 (ip), vehicle: Klucel (hydroxypropylcellulose) (HPC)): 112 % of control
T/C (dose: 266.0 mg/kg/injection, schedule: Q01DX009 (ip), vehicle: Klucel (hydroxypropylcellulose) (HPC)): 122 % of control
T/C (dose: 266.0 mg/kg/injection, schedule: Q04DX003 (ip), vehicle: Klucel (hydroxypropylcellulose) (HPC)): 109 % of control
T/C (dose: 400.0 mg/kg/injection, schedule: Q01DX009 (ip), vehicle: Klucel (hydroxypropylcellulose) (HPC)): 155 % of control
T/C (dose: 400.0 mg/kg/injection, schedule: Q04DX003 (ip), vehicle: Klucel (hydroxypropylcellulose) (HPC)): 109 % of control
T/C (dose: 600.0 mg/kg/injection, schedule: Q04DX003 (ip), vehicle: Klucel (hydroxypropylcellulose) (HPC)): 106 % of control

O=S(=O)(CCCCCCl)Cc1ccccc1
T/C (dose: 100.0 mg/kg/injection, schedule: Q01DX001 (ip), vehicle: saline): 93 % of control
T/C (dose: 200.0 mg/kg/injection, schedule: Q01DX001 (ip), vehicle: saline): 93 % of control
T/C (dose: 400.0 mg/kg/injection, schedule: Q01DX001 (ip), vehicle: saline): 96 % of control

CCC(=O)N(C)c1cccc(O)c1
T/C (dose: 100.0 mg/kg/injection, schedule: Q01DX001 (ip), vehicle: saline with Tween-80): 114 % of control
T/C (dose: 200.0 mg/kg/injection, schedule: Q01DX001 (ip), vehicle: saline with Tween-80): 94 % of control
T/C (dose: 400.0 mg/kg/injection, schedule: Q01DX001 (ip), vehicle: saline with Tween-80): 97 % of control

COc1cc2c[n+](C)c3c4cc(OC)c(OC)cc4ccc3c2cc1OC
T/C (dose: 9.6 mg/kg/injection, schedule: Q01DX009 (ip), vehicle: saline with Tween-80): 119 % of control
T/C (dose: 12.5 mg/kg/injection, schedule: Q01DX009 (ip), vehicle: water): 111 % of control
T/C (dose: 14.0 mg/kg/injection, schedule: Q01DX009 (ip), vehicle: saline with Tween-80): 115 % of control
T/C (dose: 25.0 mg/kg/injection, schedule: Q01DX009 (ip), vehicle: water): 110 % of control and 122 % of control
T/C (dose: 50.0 mg/kg/injection, schedule: Q01DX009 (ip), vehicle: water): 109 % of control and 114 % of control
T/C [1]: 123 % of control
T/C (dose: 100.0 mg/kg/injection, schedule: Q04DX003 (ip), vehicle: saline): 100 % of control
T/C (dose: 100.0 mg/kg/injection, schedule: Q04DX003 (ip), vehicle: water): 112 % of control
T/C (dose: 180.0 mg/kg/injection, schedule: Q01DX009 (ip), vehicle: saline): 109 % of control
T/C (dose: 200.0 mg/kg/injection, schedule: Q04DX003 (ip), vehicle: saline): 104 % of control
T/C (dose: 200.0 mg/kg/injection, schedule: Q04DX003 (ip), vehicle: water): 113 % of control
T/C (dose: 240.0 mg/kg/injection, schedule: Q04DX003 (ip), vehicle: water): 112 % of control
T/C (dose: 400.0 mg/kg/injection, schedule: Q04DX003 (ip), vehicle: saline): 110 % of control
T/C (dose: 400.0 mg/kg/injection, schedule: Q04DX003 (ip), vehicle: water): 107 % of control

O=C(O)C1(Cl)CC2C=CC1C2 (stereo not drawn)
T/C (dose: 50.0 mg/kg/injection, schedule: Q01DX009 (ip), vehicle: gum acacia): 99 % of control
T/C (dose: 50.0 mg/kg/injection, schedule: Q01DX009 (ip), vehicle: saline with Tween-80): 93 % of control
T/C (dose: 100.0 mg/kg/injection, schedule: Q01DX009 (ip), vehicle: gum acacia): 89 % of control
T/C (dose: 100.0 mg/kg/injection, schedule: Q01DX009 (ip), vehicle: saline with Tween-80): 96 % of control
T/C (dose: 100.0 mg/kg/injection, schedule: Q04DX003 (ip), vehicle: gum acacia): 101 % of control
T/C [2]: 93 % of control
T/C (dose: 200.0 mg/kg/injection, schedule: Q01DX009 (ip), vehicle: gum acacia): 92 % of control
T/C (dose: 200.0 mg/kg/injection, schedule: Q01DX009 (ip), vehicle: saline with Tween-80): 94 % of control
T/C (dose: 200.0 mg/kg/injection, schedule: Q04DX003 (ip), vehicle: gum acacia): 95 % of control
T/C [3]: 91 % of control

CC1(C)N=C1c1ccccc1
T/C (dose: 100.0 mg/kg/injection, schedule: Q04DX002 (ip), vehicle: saline): 98 % of control
T/C (dose: 200.0 mg/kg/injection, schedule: Q04DX002 (ip), vehicle: saline): 117 % of control

CCOC(=O)c1ccc(NC(=O)CN2CCOCC2)cc1
T/C (dose: 222.0 mg/kg/injection, schedule: Q01DX Z (ip), vehicle: saline): 102 % of control
T/C (dose: 333.0 mg/kg/injection, schedule: Q01DX Z (ip), vehicle: saline): 98 % of control
T/C (dose: 500.0 mg/kg/injection, schedule: Q01DX Z (ip), vehicle: saline): 90 % of control

CC[P+](CC=C(C)C)(c1ccccc1)c1ccccc1
T/C (dose: 0.78 mg/kg/injection, schedule: Q04DX003 (ip), vehicle: Klucel (hydroxypropylcellulose) (HPC)): 96 % of control
T/C (dose: 1.56 mg/kg/injection, schedule: Q04DX003 (ip), vehicle: Klucel (hydroxypropylcellulose) (HPC)): 94 % of control
T/C (dose: 3.12 mg/kg/injection, schedule: Q04DX003 (ip), vehicle: Klucel (hydroxypropylcellulose) (HPC)): 113 % of control and 88 % of control

N#Cc1ccc(-c2nc3ncnc(N)c3[nH]2)cc1
T/C (dose: 100.0 mg/kg/injection, schedule: Q04DX002 (ip), vehicle: Klucel (hydroxypropylcellulose) (HPC)): 97 % of control
T/C (dose: 200.0 mg/kg/injection, schedule: Q04DX002 (ip), vehicle: Klucel (hydroxypropylcellulose) (HPC)): 105 % of control
T/C (dose: 400.0 mg/kg/injection, schedule: Q04DX002 (ip), vehicle: Klucel (hydroxypropylcellulose) (HPC)): 101 % of control

CCCCC(NC(=O)CNC(=O)OCc1ccccc1)C(=O)OC (stereo not drawn)
T/C [2]: 108 % of control
T/C [3]: 100 % of control
T/C (dose: 400.0 mg/kg/injection, schedule: Q04DX003 (ip), vehicle: saline with Tween-80): 93 % of control

CCN(CC)CC(O)c1ccnc2c([N+](=O)[O-])cc(OC)cc12 (stereo not drawn)
T/C (dose: 75.0 mg/kg/injection, schedule: Q01DX001 (ip), vehicle: acetone): 106 % of control
T/C (dose: 150.0 mg/kg/injection, schedule: Q01DX001 (ip), vehicle: acetone): 102 % of control
T/C (dose: 300.0 mg/kg/injection, schedule: Q01DX001 (ip), vehicle: acetone): 91 % of control

S=C(NCc1ccccc1)[S][Sn]([c]1ccccc1)([c]1ccccc1)[c]1ccccc1
T/C (dose: 5.0 mg/kg/injection, schedule: Q01DX001 (ip), vehicle: steriod suspending solution): 101 % of control
T/C (dose: 10.0 mg/kg/injection, schedule: Q01DX001 (ip), vehicle: steriod suspending solution): 103 % of control
T/C (dose: 20.0 mg/kg/injection, schedule: Q01DX001 (ip), vehicle: steriod suspending solution): 93 % of control
T/C (dose: 40.0 mg/kg/injection, schedule: Q01DX001 (ip), vehicle: steriod suspending solution): 113 % of control
T/C (dose: 80.0 mg/kg/injection, schedule: Q01DX001 (ip), vehicle: steriod suspending solution): 104 % of control

CS(=N)(=O)CC(N)C(=O)O (stereo not drawn)
T/C [1]: 95 % of control
T/C (dose: 200.0 mg/kg/injection, schedule: Q01DX009 (ip), vehicle: saline): 114 % of control
T/C (dose: 400.0 mg/kg/injection, schedule: Q01DX009 (ip), vehicle: saline): 95 % of control
